Experiments:
rat model of colitis [1] = test: Rat model of colitis (TNBS-induced), incidence of diarrhea, enema (intra-rectal) administration; format: in vivo; conditions: for incidence of diarrhea: vehicle control 73.9%
Procedure: A rat model of colitis was prepared in accordance with the method by Morris et al. (Morris GP et al., Hapten-induced model of chronic inflammation and ulceration in the rat colon. Gasteroenterology, 96: 795-803, 1989). Specifically, the rats were fasted for approximately 24 hr and anesthetized with ether. A Teflon catheter (registered trade mark) was inserted into the lumen of the colon via the anus. The tip of the catheter was advanced to 8 cm from the anus, and 0.25 ml of TNBS solution (final concentration of 60 mg/mL in 50% ethanol) was injected into the colon. Rats were held in a vertical position for 30 seconds after TNBS injection (Day-0). One day after an injection of TNBS (Day-1), rats were randomly allocated to the four groups described below based on body weight using a stratified random sampling method. The groups were as follows: The pharmacologically active ingredient and its vehicle were delivered at 8 cm orad to the anal verge of conscious rats through a Teflon catheter (registered trade mark) inserted into the lumen of the colon via the anus. They were administered once daily in the morning for 7 consecutive days from Day-1. On the Day-B, the rats were anesthetized with ether, and sacrificed by exsanguination. The colon, from the end of the cecum to the anus, was excised, opened by a longitudinal incision, and the feces were macroscopically assessed at the excision of colons. When feces were not solid, it ws judged as diarrhea. Rats with no feces in the colon were excluded from diarrhea evaluation. The results of the incidence of diarrhea were expressed as the proportion of rats with diarrhea in each group. Statistical analysis was performed between the vehicle control group (Group A) and the groups administered with the pharmacologically active ingredient (Group B to D) using Fisher's exact test (two-sided) to which Bonferroni correction, which takes multiplicity into consideration, was applied. Statistical significance is defined as p<0.05.

rat model of colitis [2] = test: Rat model of colitis (TNBS-induced), incidence of diarrhea, oral administration; format: in vivo
Procedure: A rat model of colitis was prepared in accordance with the method by Morris et al. (Morris GP et al., Hapten-induced model of chronic inflammation and ulceration in the rat colon. Gasteroenterology, 96: 795-803, 1989). Specifically, the rats were fasted for approximately 24 hr and anesthetized with ether. A Teflon catheter (registered trade mark) was inserted into the lumen of the colon via the anus. The tip of the catheter was advanced to 8 cm from the anus, and 0.25 ml of TNBS solution (final concentration of 60 mg/mL in 50% ethanol) was injected into the colon. Rats were held in a vertical position for 30 seconds after TNBS injection (Day-0).
On the Day-B, the rats were anesthetized with ether, and sacrificed by exsanguination. The colon, from the end of the cecum to the anus, was excised, opened by a longitudinal incision, and the feces were macroscopically assessed at the excision of colons. When feces were not solid, it ws judged as diarrhea. Rats with no feces in the colon were excluded from diarrhea evaluation.

CCOc1ccc(-c2nc(-c3cccc(C(=O)O)n3)cs2)cc1OCC [pharmacologically active ingredient, 6-[2-(3,4-diethoxyphenyl)thiazol-4-yl]pyridine-2-carboxylic acid]
incidence of diarrhea (rat model of colitis [1]; Group B, 0.1 mg/kg/day enema once daily for 7 consecutive days from Day-1): 33.3%
incidence of diarrhea (rat model of colitis [1]; Group C, 0.3 mg/kg/day enema once daily for 7 consecutive days from Day-1): 20.0%
incidence of diarrhea (rat model of colitis [1]; Group D, 1 mg/kg/day enema once daily for 7 consecutive days from Day-1): 20.0%
incidence of diarrhea compared with the vehicle control group (rat model of colitis [1]; Groups B to D, 0.1 to 1 mg/kg/day enema, Fisher's exact test with Bonferroni correction, p<0.05): suppressed significantly
amount with significant disorder-suppressing effect, intra-rectal relative to oral administration (rat model of colitis [1]; intra-rectal versus oral, rat model of colitis): one tenth
incidence of diarrhea with oral administration (rat model of colitis [2]; 1 mg/kg/day): significantly effective
incidence of diarrhea with oral administration (rat model of colitis [2]; lower than 1 mg/kg/day): no significant decrease

Source: patent US20060167062A1, “Enema preparation” (priority 2003, published 2006)
